Results published in patent US20080261936A1, “METHODS OF REDUCING THE BODY WEIGHT OF A SUBJECT BY ADMINISTERING A FATTY ACID ESTER OF AN ESTROGEN OR ESTROGEN DERIVATIVE IN AN OIL AND COMPOSITIONS CONTAINING THE SAME” (Manhattan Pharmaceuticals, Inc., priority 2006, published 2008).
≈ marks a conversion by molar mass, not a printed value. Where “and” joins values, the source holds several entries; their conditions need not be identical. Identical values can stand only once.

Columns and labels:
Type in all cases: physicochemical
[1] = Oil evaluation: solubility behavior of oleoyl-estrone, 60 mg/g in single oils; settings: for solubility at 96 h: oil or lipid, after 96 hr, more oil added
Method: An oil evaluation was done to determine the solubility behavior of oleoyl-estrone as a function of type of oil, concentration and temperature. The solubility of oleoyl-estrone was evaluated at concentrations of 60 mg/g and 200 mg/g. […]

[2] = Solubility of oleoyl-estrone in binary oil blends, 200 mg/g at room temperature
Method: These four types of oils were then evaluated in binary blend systems with an oleoyl-estrone concentration of 200 mg/g at room temperature for 24 hours and 96 hours.

[3] = Compatibility/stability of oleoyl-estrone in oil systems (appearance/color, potency, related substances)
Method: The compatibility of oleoyl-estrone in various oil systems was also assessed. The respective stability of oleoyl-estrone in various oils was assessed following storage at (A) 25° C./60% and relative humidity (RH), (B) 40° C./75% RH, (C) 50° C. and (D) 60° C. in canola oil, safflower oil, Captex and a 2:1 Captex: Labrafil mixture. The stability test methods include appearance/color, potency, and related substances (e.g. impurities or degradant in the oleoyl-estrone and oil mixture).

[4] = 60 mg/g in Canola at RT (about 22° C.)
[5] = 60 mg/g in Captex 300-6C at RT (about 22° C.)
[6] = 60 mg/g in Captex 300 EP at RT (about 22° C.)
[7] = 60 mg/g in Corn at RT (about 22° C.)
[8] = 60 mg/g in Labrafac at RT (about 22° C.)
[9] = 60 mg/g in Labrasol at RT (about 22° C.)
[10] = 60 mg/g in Olive at RT (about 22° C.)
[11] = 60 mg/g in Safflower at RT (about 22° C.)
[12] = 60 mg/g in Sesame at RT (about 22° C.)
[13] = 60 mg/g in Soybean at RT (about 22° C.)
[14] = 200 mg/g in Canola:Labrafil (2:1) at RT (about 22° C.)
[15] = 200 mg/g in Captex 300 EP:Labrafil (2:1) at RT (about 22° C.)
[16] = 200 mg/g in Safflower:Labrafil (2:1) at RT (about 22° C.)
[17] = in 2:1 CAPTEX:LABRAFIL, One Week 25° C./60% RH
[18] = in 2:1 CAPTEX:LABRAFIL, One Week 40° C./75% RH
[19] = in 2:1 CAPTEX:LABRAFIL, One Week 50° C.
[20] = in 2:1 CAPTEX:LABRAFIL, One Week 60° C.
[21] = in 2:1 CAPTEX:LABRAFIL, Time Zero
[22] = in 2:1 CAPTEX:LABRAFIL, Two Weeks 25° C./60% RH
[23] = in 2:1 CAPTEX:LABRAFIL, Two Weeks 40° C./75% RH
[24] = in CANOLA, One Week 25° C./60% RH
[25] = in CANOLA, One Week 40° C./75% RH

CCCCCCCC/C=C\CCCCCCCC(=O)Oc1ccc2c(c1)CC[C@@H]1[C@@H]2CC[C@]2(C)C(=O)CC[C@@H]12 [oleoyl-estrone, [3(Z)]-3-[(1-oxo-9-octadecenyl)oxy]-estra-1,3,5(10)-trien-17-one]
Solubility Cycled to 5° C. after 96 hr ([1]; 60 mg/g in Canola): Dissolved
Solubility After 24 hr [1, 4]: Dissolved
Solubility After 96 hr [1, 4]: Dissolved
Solubility Cycled to 5° C. after 96 hr ([1]; 60 mg/g in Captex 300-6C): Dissolved
Solubility After 24 hr [1, 5]: Dissolved
Solubility After 96 hr [1, 5]: Dissolved
Solubility Cycled to 5° C. after 96 hr ([1]; 60 mg/g in Captex 300 EP): Dissolved
Solubility After 24 hr [1, 6]: Dissolved
Solubility After 96 hr [1, 6]: Dissolved
Solubility Cycled to 5° C. after 96 hr ([1]; 60 mg/g in Corn): Dissolved
Solubility After 24 hr [1, 7]: Dissolved
Solubility After 96 hr [1, 7]: Dissolved
Solubility Cycled to 5° C. after 96 hr ([1]; 60 mg/g in Labrafac): Dissolved
Solubility After 24 hr [1, 8]: Dissolved
Solubility After 96 hr [1, 8]: Dissolved
Solubility Cycled to 5° C. after 96 hr ([1]; 60 mg/g in Labrafil 1944 CS): Dissolved
Solubility After 96 hr ([1]; 60 mg/g in Labrafil 1944 CS at RT (about 22° C.)): NOT Dissolved more oil
Solubility Cycled to 5° C. after 96 hr ([1]; 60 mg/g in Labrafil M 125CS): Dissolved
Solubility After 96 hr ([1]; 60 mg/g in Labrafil M 125CS at RT (about 22° C.)): NOT Dissolved more oil
Solubility After 24 hr [1, 9]: Dissolved
Solubility After 96 hr [1, 9]: Dissolved
Solubility Cycled to 5° C. after 96 hr ([1]; 60 mg/g in Olive): Dissolved
Solubility After 24 hr [1, 10]: Dissolved
Solubility After 96 hr [1, 10]: Dissolved
Solubility Cycled to 5° C. after 96 hr ([1]; 60 mg/g in Safflower): Dissolved
Solubility After 24 hr [1, 11]: Dissolved
Solubility After 96 hr [1, 11]: Dissolved
Solubility Cycled to 5° C. after 96 hr ([1]; 60 mg/g in Sesame): Dissolved
Solubility After 24 hr [1, 12]: Dissolved
Solubility After 96 hr [1, 12]: Dissolved
Solubility Cycled to 5° C. after 96 hr ([1]; 60 mg/g in Soybean): Dissolved
Solubility After 24 hr [1, 13]: Dissolved
Solubility After 96 hr [1, 13]: Dissolved
solubility at 96 h ([1]; Labrafil 1944 CS (oil), in Labrafil 1944 CS at RT (about 22° C.)): ~5000 µg/mL (≈ 9.35 mM)
solubility at 96 h ([1]; Labrafil M 125CS (oil), in Labrafil M 125CS at RT (about 22° C.)): ≤ 3000 µg/mL
Notes (phase separation) [2, 14]: No phase separation
Solubility After 24 hr [2, 14]: Dissolved
Solubility After 96 hr [2, 14]: Dissolved
Notes (phase separation) [2, 15]: No phase separation
Solubility After 24 hr [2, 15]: Dissolved
Solubility After 96 hr [2, 15]: Dissolved
Notes (phase separation) [2, 16]: No phase separation
Solubility After 24 hr [2, 16]: NOT Dissolved
Solubility After 96 hr [2, 16]: Dissolved
Solubility After 24 hr ([2]; 200 mg/g in Soybean:Labrafil (2:1) at RT (about 22° C.)): NOT Dissolved
Mean Purity Assay [3, 17]: 101.9%
Purity Assay [3, 17]: 100.4% and 103.3%
Mean Purity Assay [3, 18]: 104.4%
Purity Assay [3, 18]: 102.2% and 106.6%
Mean Purity Assay [3, 19]: 106.8%
Purity Assay [3, 19]: 106.6% and 107.0%
Mean Purity Assay [3, 20]: 98.2%
Purity Assay [3, 20]: 98.4% and 97.9%
Mean Purity Assay ([3]; in 2:1 CAPTEX:LABRAFIL, Three Weeks 25° C./60% RH): 102.1%
Mean Purity Assay ([3]; in 2:1 CAPTEX:LABRAFIL, Three Weeks 40° C./75% RH): 99.7%
Mean Purity Assay ([3]; in 2:1 CAPTEX:LABRAFIL, Three Weeks 50° C.): 103.8%
Mean Purity Assay ([3]; in 2:1 CAPTEX:LABRAFIL, Three Weeks 60° C.): 102.1%
Mean Purity Assay [3, 21]: 104.8%
Purity Assay [3, 21]: 105.1% and 104.9% and 103.6% and 105.2%
Mean Purity Assay [3, 22]: 102.9%
Purity Assay [3, 22]: 101.3% and 104.4%
Mean Purity Assay [3, 23]: 104.5%
Purity Assay [3, 23]: 107.3% and 101.7%
Mean Purity Assay ([3]; in 2:1 CAPTEX:LABRAFIL, Two Weeks 50° C.): 104.0%
Mean Purity Assay ([3]; in 2:1 CAPTEX:LABRAFIL, Two Weeks 60° C.): 106.2%
Mean Purity Assay [3, 24]: 96.5%
Purity Assay [3, 24]: 96.3% and 96.7%
Mean Purity Assay [3, 25]: 95.8%
Purity Assay [3, 25]: 95.2% and 96.4%
Mean Purity Assay ([3]; in CANOLA, One Week 50° C.): 99.8%
Purity Assay ([3]; in CANOLA, One Week 50° C.): 96.3% and 103.3%
Mean Purity Assay ([3]; in CANOLA, One Week 60° C.): 98.2%
Purity Assay ([3]; in CANOLA, One Week 60° C.): 97.8% and 98.5%
